# Like-named read-outs stand apart in the source and are kept apart here.
# Legend:
# bloodstream T. brucei [1] = conditions: bloodstream T. brucei in culture; cited from earlier work
# P. falciparum = conditions: in vitro; cited from earlier work
# GMPS = GMPS (Escherichia coli, UniProt P04079); conditions: Chittur et al., 2001, cited from earlier work
# [2] = system: cellular UTP, CTP, GMP, ATP, ITP; conditions: Neil et al., 1979; cited from earlier work
# Chlamydia = experiment: effect of chemical inhibitors of GMPS on Chlamydia infection; assay type: cell-based
# Experimental: The effect of chemical inhibitors of GMPS on Chlamydia infection was tested.
# bloodstream T. brucei [3] = conditions: mouse model; cited from earlier work
# Leishmania donovani = conditions: vector and host form; cited from earlier work
# PPAT, GMPS, CAD, CTPS = conditions: de novo pathway of purine and pyrimidine synthesis; cited from earlier work
# cPLA2 [4] = conditions: Su et al., 2004; cited from earlier work
# Ctr = conditions: Su et al., 2004; cited from earlier work
# [5] = system: Chlamydia trachomatis (Ctr); conditions: 10 μM or 100 μM U0126 added 2 h after infection; lysed 48 h p.i.; FIG. 3D
# Experimental: (§1) Western blotting analysis (30 hours post-infection) of (A) uninfected and Ctr-infected cells with and without U0126, (B) uninfected and Ctr-infected cells transfected with siRNAs targeting luciferase or MEK1 and 2, and (C) uninfected and Ctr-infected cells transfected with siRNAs targeting luciferase, K-Ras, or Raf-1. β-actin was used as a loading control. (D) Uninfected and Ctr-infected cells treated with or without UO126 were lysed at 48 hours post-infection and these samples were used to infect freshly seeded cells. These cells were fixed 24 hours post-infection and the infectivity was quantified. Data shown are the mean±SD of three experiments normalized to mock-treated, infected cells. (E) Uninfected and Ctr-infected cells, untransfected of transfected with siRNAs specific for luciferase, K-Ras, or Raf-1 were lysed 48 hours post-infection and these samples were then used to infect freshly seeded cells. These cells were fixed 24 hours post-infection and the infectivity of the bacteria was quantified. […] Western blots depicted in (A) to (C) are representative of three experiments.
# ERK = conditions: 30 hours post-infection; FIG. 3A
# Experimental: as §1
# cPLA2 [6] = conditions: 30 hours post-infection; FIG. 3A
# Experimental: as §1
# Sequence of GMPS (P04079 whole entry): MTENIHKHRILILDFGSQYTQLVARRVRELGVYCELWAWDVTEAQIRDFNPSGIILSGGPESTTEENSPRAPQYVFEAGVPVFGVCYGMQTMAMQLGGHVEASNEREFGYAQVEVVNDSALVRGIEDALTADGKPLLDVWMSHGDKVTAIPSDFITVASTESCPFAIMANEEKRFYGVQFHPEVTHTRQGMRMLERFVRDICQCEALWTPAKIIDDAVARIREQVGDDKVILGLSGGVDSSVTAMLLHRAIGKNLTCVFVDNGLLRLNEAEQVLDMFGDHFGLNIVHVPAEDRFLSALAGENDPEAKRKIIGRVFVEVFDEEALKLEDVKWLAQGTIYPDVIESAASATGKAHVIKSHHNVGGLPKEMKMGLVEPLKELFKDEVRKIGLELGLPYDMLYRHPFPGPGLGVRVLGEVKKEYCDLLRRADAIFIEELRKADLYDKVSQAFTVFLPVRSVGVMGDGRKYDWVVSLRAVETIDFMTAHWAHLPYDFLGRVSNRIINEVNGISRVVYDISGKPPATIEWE
Compound,antitrypanosomal activity (bloodstream T. brucei [1]),growth of P. falciparum (P. falciparum),inhibition of GMPS (γ-glutamine amidotransferase activity) (GMPS),inhibition of GMPS (γ-glutamine amidotransferase activity) (GMPS; listed as Acivicin),cellular nucleotide concentrations [2],Chlamydia replication after addition of the nucleotides GTP and GMP (Chlamydia; cells to which acivicin was added),Chlamydia replication (Chlamydia; chemical inhibitor of GMPS added to infected cells),antitrypanosomal activity (bloodstream T. brucei [3]),killing of Leishmania donovani (Leishmania donovani),"inhibition of PPAT, GMPS, CAD and CTPS (PPAT, GMPS, CAD, CTPS)",extent of phosphorylation of cPLA2 (cPLA2 [4]),infectivity of Ctr (Ctr),infectivity of Ctr [5],phosphorylation of ERK in response to infection (ERK),phosphorylation of cPLA2 in response to infection (cPLA2 [6])
"N[C@H](C(=O)O)[C@@H]1CC(Cl)=NO1 [acivicin, L-[αS,5S]-α-amino-3-chloro-4,5-dihydro-5-isoxazoleacetic acid]",antitrypanosomal activity,inhibit the growth,inhibit,irreversibly inhibits,"decrease of cellular UTP, CTP, and GMP concentrations, with no alteration in ATP or ITP pools",recover Chlamydia replication,complete block,antitrypanosomal activity,kills both the vector and the host form,inhibits,,,,,
N#CC(=C(/N)Sc1ccccc1N)/C(C#N)=C(\N)Sc1ccccc1N [U0126],,,,,,,,,,,reduces,decreases,decreased,repressed,repressed

# From patent US20130116302A1, “PHARMACEUTICAL COMPOSITION FOR THE TREATMENT OF CHLAMYDIAL INFECTION” (Max-Planck-Gesellschaft zur Foerderung der Wissenschaften …, priority 2010, published 2013)
